Values of other authors as cited in US9186343B2, “Nanoveso™: treatment, biomarkers and diagnostic tests for liver diseases and comorbid diseases” (Nanoveson, LLC, priority 2007, dated 2015).
Where “and” joins values, the source holds several entries; their conditions need not be identical. Equal entries are not always repeated.

B1: annexin: synexin (a.k.a. annexin VII), a Ca2+ binding protein (protein, UniProt P20073 1-488, looked up)
Annexin A7: MSYPGYPPTGYPPFPGYPPAGQESSFPPSGQYPYPSGFPPMGGGAYPQVPSSGYPGAGGYPAPGGYPAPGGYPGAPQPGGAPSYPGVPPGQGFGVPPGGAGFSGYPQPPSQSYGGGPAQVPLPGGFPGGQMPSQYPGGQPTYPSQINTDSFSSYPVFSPVSLDYSSEPATVTQVTQGTIRPAANFDAIRDAEILRKAMKGFGTDEQAIVDVVANRSNDQRQKIKAAFKTSYGKDLIKDLKSELSGNMEELILALFMPPTYYDAWSLRKAMQGAGTQERVLIEILCTRTNQEIREIVRCYQSEFGRDLEKDIRSDTSGHFERLLVSMCQGNRDENQSINHQMAQEDAQRLYQAGEGRLGTDESCFNMILATRSFPQLRATMEAYSRMANRDLLSSVSREFSGYVESGLKTILQCALNRPAFFAERLYYAMKGAGTDDSTLVRIVVTRSEIDLVQIKQMFAQMYQKTLGTMIAGDTSGDYRRLLLAIVGQ

Key:
[1] = tested on: human prostate cancer cells; details: in vitro at micromolar concentrations
chromaffin granules = details: most effective fusogen of 23 compounds
[2] = presence of annexin

Row | Molecule | human prostate cancer cell growth [1] | minimum concentration as fusogen (chromaffin granules) | increase of the aggregation rate [2]
1 | CCCCC/C=C\C/C=C\C/C=C\C/C=C\CCCC(=O)O [AA, Arachidonic Acid (n-6 20:4)] | effective stimulator | 2 ug/ml and 6.6 uM | 
2 | B1 |  |  | up to 100 fold
